Data reported in PubChem BioAssay AID248 (DTP/NCI, 2004).
Where “and” joins values, the source holds several entries; their conditions need not be identical. Equal entries are not always repeated. Toxic doses and inconclusive results are not listed.

System: L1210 leukemia ip in BDF1 mice, survival T/C
Assay: NCI In Vivo Anticancer Drug Screen. Data for tumor model L1210 Leukemia (intraperitoneal) in B6D2F1 (BDF1) mice
Details: endpoint: mean survival time, higher = longer survival
Outline: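 Ratio derived from survival: compound-dosed mice over vehicle-dosed mice, all bearing a transplantable tumor.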

[1] = dose: 100.0 mg/kg/injection, schedule: Q01DX001 (ip), vehicle: carboxymethylcellulose (CMC)
[2] = dose: 100.0 mg/kg/injection, schedule: Q01DX009 (ip), vehicle: saline
[3] = dose: 200.0 mg/kg/injection, schedule: Q01DX001 (ip), vehicle: carboxymethylcellulose (CMC)
[4] = dose: 300.0 mg/kg/injection, schedule: Q01DX001 (ip), vehicle: carboxymethylcellulose (CMC)
[5] = dose: 100.0 mg/kg/injection, schedule: Q04DX003 (ip), vehicle: saline with Tween-80
[6] = dose: 100.0 mg/kg/injection, schedule: Q04DX003 (ip), vehicle: Klucel (hydroxypropylcellulose) (HPC)
[7] = dose: 200.0 mg/kg/injection, schedule: Q04DX003 (ip), vehicle: Klucel (hydroxypropylcellulose) (HPC)
[8] = dose: 400.0 mg/kg/injection, schedule: Q04DX003 (ip), vehicle: Klucel (hydroxypropylcellulose) (HPC)
[9] = dose: 400.0 mg/kg/injection, schedule: Q01DX001 (ip), vehicle: carboxymethylcellulose (CMC)

## COc1cc(NC(=O)CN(CCCl)CCCl)cc(OC)c1OC
dose: 13.3 mg/kg/injection, schedule: Q01DX009 (ip), vehicle: carboxymethylcellulose (CMC)
  T/C: 116 % of control
dose: 20.0 mg/kg/injection, schedule: Q01DX009 (ip), vehicle: carboxymethylcellulose (CMC)
  T/C: 100 % of control
dose: 25.0 mg/kg/injection, schedule: Q01DX001 (ip), vehicle: carboxymethylcellulose (CMC)
  T/C: 122 % of control
dose: 30.0 mg/kg/injection, schedule: Q01DX009 (ip), vehicle: carboxymethylcellulose (CMC)
  T/C: 124 % of control
dose: 44.4 mg/kg/injection, schedule: Q01DX009 (ip), vehicle: carboxymethylcellulose (CMC)
  T/C: 123 % of control
dose: 45.0 mg/kg/injection, schedule: Q01DX009 (ip), vehicle: carboxymethylcellulose (CMC)
  T/C: 107 % of control
dose: 50.0 mg/kg/injection, schedule: Q01DX001 (ip), vehicle: carboxymethylcellulose (CMC)
  T/C: 116 % of control
dose: 66.6 mg/kg/injection, schedule: Q01DX009 (ip), vehicle: carboxymethylcellulose (CMC)
  T/C: 110 % of control
dose: 89.0 mg/kg/injection, schedule: Q01DX001 (ip), vehicle: carboxymethylcellulose (CMC)
  T/C: 112 % of control
dose: 89.0 mg/kg/injection, schedule: Q01DX001 (ip), vehicle: saline
  T/C: 118 % of control
[1]
  T/C: 119 % of control
dose: 100.0 mg/kg/injection, schedule: Q01DX009 (ip), vehicle: carboxymethylcellulose (CMC)
  T/C: 86 % of control
[2]
  T/C: 170 % of control
dose: 133.0 mg/kg/injection, schedule: Q01DX001 (ip), vehicle: carboxymethylcellulose (CMC)
  T/C: 102 % of control and 115 % of control
dose: 150.0 mg/kg/injection, schedule: Q01DX009 (ip), vehicle: carboxymethylcellulose (CMC)
  T/C: 88 % of control
dose: 150.0 mg/kg/injection, schedule: Q01DX009 (ip), vehicle: saline
  T/C: 90 % of control
[3]
  T/C: 114 % of control and 120 % of control
[4]
  T/C: 107 % of control

## Cc1ccc(-n2c(O)c(N=Nc3ccccc3C)c(=O)n(-c3ccc(Cl)cc3)c2=S)cc1
dose: 50.0 mg/kg/injection, schedule: Q01DX001 (ip), vehicle: Klucel (hydroxypropylcellulose) (HPC)
  T/C: 104 % of control
dose: 100.0 mg/kg/injection, schedule: Q01DX001 (ip), vehicle: Klucel (hydroxypropylcellulose) (HPC)
  T/C: 102 % of control
dose: 200.0 mg/kg/injection, schedule: Q01DX001 (ip), vehicle: Klucel (hydroxypropylcellulose) (HPC)
  T/C: 102 % of control

## Clc1nc(Br)[nH]c1Cl
dose: 1.56 mg/kg/injection, schedule: Q01DX009 (ip), vehicle: Klucel (hydroxypropylcellulose) (HPC)
  T/C: 100 % of control
dose: 3.12 mg/kg/injection, schedule: Q01DX009 (ip), vehicle: Klucel (hydroxypropylcellulose) (HPC)
  T/C: 107 % of control
dose: 6.25 mg/kg/injection, schedule: Q01DX009 (ip), vehicle: Klucel (hydroxypropylcellulose) (HPC)
  T/C: 100 % of control and 113 % of control

## COC(=O)c1ccc(OC)c(-c2cc(OC)ccc2C(=O)OC)c1
dose: 100.0 mg/kg/injection, schedule: Q04DX002 (ip), vehicle: Klucel (hydroxypropylcellulose) (HPC)
  T/C: 112 % of control
dose: 200.0 mg/kg/injection, schedule: Q04DX002 (ip), vehicle: Klucel (hydroxypropylcellulose) (HPC)
  T/C: 101 % of control
dose: 400.0 mg/kg/injection, schedule: Q04DX002 (ip), vehicle: Klucel (hydroxypropylcellulose) (HPC)
  T/C: 104 % of control

## O=c1c(CCO)c(C2CC2)n2n1CCCC2
dose: 9.38 mg/kg/injection, schedule: Q01DX001 (ip), vehicle: other
  T/C: 94 % of control
dose: 18.75 mg/kg/injection, schedule: Q01DX001 (ip), vehicle: other
  T/C: 103 % of control

## CCC(C)C(CO)c1ccccc1 (stereo not drawn)
[5]
  T/C: 93 % of control
dose: 200.0 mg/kg/injection, schedule: Q04DX003 (ip), vehicle: saline with Tween-80
  T/C: 91 % of control

## Cc1ccc2c(c1)C1CCC3(CC1OC2(C)C)OC(C)(C)c1cc(C)ccc13 (stereo not drawn)
dose: 100.0 mg/kg/injection, schedule: Q01DX009 (ip), vehicle: Klucel (hydroxypropylcellulose) (HPC)
  T/C: 95 % of control
[6]
  T/C: 105 % of control
dose: 200.0 mg/kg/injection, schedule: Q01DX009 (ip), vehicle: Klucel (hydroxypropylcellulose) (HPC)
  T/C: 89 % of control
[7]
  T/C: 95 % of control
[8]
  T/C: 95 % of control

## ON(C(=Nc1cccc2ccccc12)c1ccccc1)c1ccccc1
dose: 75.0 mg/kg/injection, schedule: Q01DX001 (ip), vehicle: carboxymethylcellulose (CMC)
  T/C: 97 % of control
dose: 150.0 mg/kg/injection, schedule: Q01DX001 (ip), vehicle: carboxymethylcellulose (CMC)
  T/C: 92 % of control
[4]
  T/C: 98 % of control

## Cc1cc(=S)n(C)c2ccccc12
[1]
  T/C: 89 % of control
[3]
  T/C: 89 % of control
[9]
  T/C: 96 % of control

## O=C1c2cccc3cc([N+](=O)[O-])cc(c23)C(=O)N1C(Cc1ccccc1)c1ccccc1 (stereo not drawn)
dose: 100.0 mg/kg/injection, schedule: Q04DX002 (ip), vehicle: saline with Tween-80
  T/C: 103 % of control
dose: 200.0 mg/kg/injection, schedule: Q04DX002 (ip), vehicle: saline with Tween-80
  T/C: 95 % of control
dose: 400.0 mg/kg/injection, schedule: Q04DX002 (ip), vehicle: saline with Tween-80
  T/C: 103 % of control

## C#CCOC(=O)Nc1ccc(C)cc1
[1]
  T/C: 108 % of control
[3]
  T/C: 100 % of control
[9]
  T/C: 118 % of control

## Ic1sc(I)c(I)c1I
[1]
  T/C: 95 % of control
[3]
  T/C: 93 % of control
[9]
  T/C: 104 % of control

## CC(=O)C(Cl)C(C)=O.CC(=O)C(Cl)C(C)=O.CC(=O)CC(C)=O.[Rh]
dose: 50.0 mg/kg/injection, schedule: Q01DX001 (ip), vehicle: other
  T/C: 102 % of control
dose: 100.0 mg/kg/injection, schedule: Q01DX001 (ip), vehicle: other
  T/C: 98 % of control
dose: 200.0 mg/kg/injection, schedule: Q01DX001 (ip), vehicle: other
  T/C: 96 % of control
dose: 400.0 mg/kg/injection, schedule: Q01DX001 (ip), vehicle: other
  T/C: 98 % of control

## CCCCCCCS(=O)c1nc2ccccc2s1 (stereo not drawn)
dose: 100.0 mg/kg/injection, schedule: Q04DX002 (ip), vehicle: other
  T/C: 104 % of control
dose: 200.0 mg/kg/injection, schedule: Q04DX002 (ip), vehicle: other
  T/C: 91 % of control
dose: 400.0 mg/kg/injection, schedule: Q04DX002 (ip), vehicle: other
  T/C: 91 % of control

## CCCNC1=C(C)C(=O)C2=C(C1=O)[C@H](COC(N)=O)[C@]1(OC)[C@@H]3N[C@@H]3CN21
dose: 2.9 mg/kg/injection, schedule: Q01DX001 (ip), vehicle: acetone
  T/C: 109 % of control
dose: 4.3 mg/kg/injection, schedule: Q01DX001 (ip), vehicle: acetone
  T/C: 117 % of control
dose: 4.5 mg/kg/injection, schedule: Q01DX009 (ip), vehicle: acetone
  T/C: 118 % of control
dose: 6.6 mg/kg/injection, schedule: Q01DX001 (ip), vehicle: saline
  T/C: 108 % of control
dose: 7.5 mg/kg/injection, schedule: Q01DX009 (ip), vehicle: acetone
  T/C: 86 % of control
dose: 9.9 mg/kg/injection, schedule: Q01DX001 (ip), vehicle: saline
  T/C: 101 % of control
dose: 15.0 mg/kg/injection, schedule: Q01DX001 (ip), vehicle: acetone
  T/C: 165 % of control
dose: 15.0 mg/kg/injection, schedule: Q01DX001 (ip), vehicle: saline
  T/C: 110 % of control
dose: 22.0 mg/kg/injection, schedule: Q01DX001 (ip), vehicle: acetone
  T/C: 92 % of control
dose: 22.0 mg/kg/injection, schedule: Q01DX001 (ip), vehicle: saline
  T/C: 113 % of control

## CCOC(=O)c1ccc2ccccc2c1
dose: 100.0 mg/kg/injection, schedule: Q01DX009 (ip), vehicle: saline with Tween-80
  T/C: 94 % of control
dose: 200.0 mg/kg/injection, schedule: Q01DX009 (ip), vehicle: saline with Tween-80
  T/C: 97 % of control
dose: 400.0 mg/kg/injection, schedule: Q01DX009 (ip), vehicle: saline with Tween-80
  T/C: 89 % of control

## CCOC(CN=Cc1ccc(Cl)c(Cl)c1)OCC
[6]
  T/C: 94 % of control
[7]
  T/C: 97 % of control
[8]
  T/C: 96 % of control

## O=S(O)c1ccc(Cl)cc1
[2]
  T/C: 101 % of control
dose: 200.0 mg/kg/injection, schedule: Q01DX009 (ip), vehicle: saline
  T/C: 100 % of control
dose: 400.0 mg/kg/injection, schedule: Q01DX009 (ip), vehicle: saline
  T/C: 98 % of control

## CC(=O)OC(CC(O)(C(F)(F)F)C(F)(F)F)C(C)(C)C (stereo not drawn)
dose: 25.0 mg/kg/injection, schedule: Q01DX009 (ip), vehicle: saline
  T/C: 104 % of control
dose: 50.0 mg/kg/injection, schedule: Q01DX009 (ip), vehicle: saline
  T/C: 102 % of control
[5]
  T/C: 98 % of control

## CC(=O)NC(CSSCC(NC(C)=O)C(=O)OC(C)=O)C(=O)O (stereo not drawn)
dose: 25.0 mg/kg/injection, schedule: Q01DX001 (ip), vehicle: saline
  T/C: 102 % of control
dose: 50.0 mg/kg/injection, schedule: Q01DX001 (ip), vehicle: saline
  T/C: 96 % of control
dose: 100.0 mg/kg/injection, schedule: Q01DX001 (ip), vehicle: saline
  T/C: 93 % of control
